According to ChEMBL document CHEMBL6092154, “Design, synthesis, and evaluation of a novel TRAIL-activated HDAC6 inhibitor for the treatment of pulmonary fibrosis” (Bioorg Med Chem, 2024):
Calls of active or inactive are those of the source. The calls are words filed in the database; no cut-off is given here.

Columns and labels:
[1] = Toxicity against silicosis C57BL/6J mouse model assessed as uric acid level in serum at 50 mg/kg, ig administered daily via gavage and measured on day 28; format: organism-based; conditions: in vivo, po, 672 h, time 28 day
[2] = molecular target: T1, Protein deacetylase HDAC6 (Homo sapiens) (UniProt Q9UBN7); experiment: Inhibition of HDAC6 in human RPMI-8226 cells assessed as increase in acetylated alpha-tubulin level at 0.25 to 1 uM incubated for 24 hrs by western blot analysis; format: cell-based; conditions: dose 0.25-1 µM
T1 sequence (whole entry): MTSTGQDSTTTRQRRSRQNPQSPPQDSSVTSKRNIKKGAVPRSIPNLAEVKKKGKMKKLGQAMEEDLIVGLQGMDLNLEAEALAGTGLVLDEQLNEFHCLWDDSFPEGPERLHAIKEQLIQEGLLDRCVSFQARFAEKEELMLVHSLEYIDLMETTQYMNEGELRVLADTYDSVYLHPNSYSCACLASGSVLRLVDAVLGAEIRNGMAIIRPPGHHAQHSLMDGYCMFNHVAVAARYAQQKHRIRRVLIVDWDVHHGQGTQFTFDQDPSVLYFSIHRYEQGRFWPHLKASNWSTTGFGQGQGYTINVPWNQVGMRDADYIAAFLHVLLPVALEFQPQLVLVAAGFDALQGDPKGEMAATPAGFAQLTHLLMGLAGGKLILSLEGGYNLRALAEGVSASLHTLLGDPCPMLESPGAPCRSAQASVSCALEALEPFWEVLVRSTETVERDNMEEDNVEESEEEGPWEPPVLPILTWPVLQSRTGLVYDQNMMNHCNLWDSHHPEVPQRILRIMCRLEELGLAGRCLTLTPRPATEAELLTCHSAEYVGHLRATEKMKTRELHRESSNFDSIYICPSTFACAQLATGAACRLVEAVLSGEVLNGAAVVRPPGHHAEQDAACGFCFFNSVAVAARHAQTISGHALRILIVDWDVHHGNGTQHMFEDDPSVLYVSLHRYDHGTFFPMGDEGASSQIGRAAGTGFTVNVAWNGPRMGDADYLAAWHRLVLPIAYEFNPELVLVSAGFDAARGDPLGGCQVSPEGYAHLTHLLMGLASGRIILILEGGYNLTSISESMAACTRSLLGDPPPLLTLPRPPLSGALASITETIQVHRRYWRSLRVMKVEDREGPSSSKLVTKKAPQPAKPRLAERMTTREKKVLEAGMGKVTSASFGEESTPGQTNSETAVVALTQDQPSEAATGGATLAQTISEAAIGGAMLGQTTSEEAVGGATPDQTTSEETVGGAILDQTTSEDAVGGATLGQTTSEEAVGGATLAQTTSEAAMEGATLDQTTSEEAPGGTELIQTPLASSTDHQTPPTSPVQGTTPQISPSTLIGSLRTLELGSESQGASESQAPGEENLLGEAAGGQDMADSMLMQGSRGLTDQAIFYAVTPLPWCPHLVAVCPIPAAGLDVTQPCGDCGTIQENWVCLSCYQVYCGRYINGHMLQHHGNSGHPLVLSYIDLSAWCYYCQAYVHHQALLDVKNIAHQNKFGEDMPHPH

[3] = Toxicity against silicosis C57BL/6J mouse model assessed as effect on liver morphological changes at 50 mg/kg, ig administered daily via gavage and measured on day 28 by Hematoxylin-Eosin staining based analysis; format: organism-based; conditions: in vivo, po, 672 h, time 28 day
Mus musculus [4] = experiment: (§1) Anti-pulmonary fibrosis activity in bleomycin-induced idiopathic pulmonary fibrosis C57BL/6J mouse model assessed as decrease in lung damage by measuring decrease in collagen deposition in lung at 25 to 50 mg/kg, ig administered daily via gavage and measured on day 14 by Hematoxylin-Eosin staining based analysis; format: functional, organism-based; conditions: dose 25-50 mg/kg, time 14.0 day
[5] = molecular target: T2, Protein deacetylase HDAC6 (Mus musculus) (UniProt Q9Z2V5); experiment: In vivo inhibition of HDAC6 in bleomycin-induced idiopathic pulmonary fibrosis C57BL/6J mouse model assessed as increase in acetylated histone H4 level in lung at 25 mg/kg, ig administered via gavage and measured on day 14 by western blot analysis; format: functional, organism-based; conditions: time 14.0 day
T2 sequence (whole entry): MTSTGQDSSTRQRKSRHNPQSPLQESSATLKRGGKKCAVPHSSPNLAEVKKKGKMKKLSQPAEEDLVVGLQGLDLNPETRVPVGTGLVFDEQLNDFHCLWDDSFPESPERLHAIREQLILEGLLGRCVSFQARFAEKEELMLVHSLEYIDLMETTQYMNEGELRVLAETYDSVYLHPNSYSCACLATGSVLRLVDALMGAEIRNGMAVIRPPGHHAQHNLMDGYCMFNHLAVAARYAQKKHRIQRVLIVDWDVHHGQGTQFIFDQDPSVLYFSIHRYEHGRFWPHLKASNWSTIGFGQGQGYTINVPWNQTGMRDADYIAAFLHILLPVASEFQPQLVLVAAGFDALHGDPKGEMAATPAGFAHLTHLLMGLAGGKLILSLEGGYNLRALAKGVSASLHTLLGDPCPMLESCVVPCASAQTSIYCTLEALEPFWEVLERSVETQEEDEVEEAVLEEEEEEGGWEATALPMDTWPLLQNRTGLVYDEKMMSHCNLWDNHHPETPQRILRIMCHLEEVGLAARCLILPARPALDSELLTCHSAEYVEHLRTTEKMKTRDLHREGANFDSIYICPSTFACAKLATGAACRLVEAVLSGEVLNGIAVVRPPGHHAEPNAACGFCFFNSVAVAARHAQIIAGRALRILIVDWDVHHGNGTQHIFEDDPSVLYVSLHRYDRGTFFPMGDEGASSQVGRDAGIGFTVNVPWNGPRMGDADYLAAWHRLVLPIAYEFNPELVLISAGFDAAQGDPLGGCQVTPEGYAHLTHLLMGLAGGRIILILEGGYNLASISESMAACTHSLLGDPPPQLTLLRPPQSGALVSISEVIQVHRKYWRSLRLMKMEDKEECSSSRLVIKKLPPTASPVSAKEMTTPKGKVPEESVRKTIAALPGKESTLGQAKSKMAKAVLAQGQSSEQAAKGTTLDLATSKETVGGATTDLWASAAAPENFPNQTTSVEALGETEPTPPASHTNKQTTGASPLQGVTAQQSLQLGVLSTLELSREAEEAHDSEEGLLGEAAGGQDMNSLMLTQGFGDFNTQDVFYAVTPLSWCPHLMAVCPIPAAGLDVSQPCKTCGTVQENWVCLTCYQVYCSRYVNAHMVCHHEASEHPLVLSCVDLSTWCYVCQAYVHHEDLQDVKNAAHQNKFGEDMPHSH

Mus musculus [6] = experiment: as §1, with “Sirius red” for “Hematoxylin-Eosin”; format: functional, organism-based; conditions: dose 25-50 mg/kg, time 14.0 day
[7] = Toxicity against bleomycin-induced pulmonary fibrosis C57BL/6J mouse model assessed as increase AST index in serum at 50 mg/kg, ig administered daily via gavage and measured on day 14; format: organism-based; conditions: in vivo, po, 336 h, time 14 day
Fibroblast = experiment: Antiproliferative activity against human primary fibroblasts assessed as inhibition of cell growth incubated for 24 to 48 hrs by CCK8 assay; format: functional, cell-based
RPMI-8226 = experiment: Antiproliferative activity against human RPMI-8226 cells assessed as inhibition of cell growth incubated for 24 to 48 hrs by CCK8 assay; format: functional, cell-based

SMILES: O=C(NO)c1ccc(CN2C(=O)C3=C(CCN(Cc4cccc(Cl)c4)C3)N3CCN=C23)cc1
- Activity [1]: Non-toxic
- inhibition [2]: Active
- Activity [3]: Non-toxic
- Activity (Mus musculus [4]): Active
- inhibition [5]: inactive
- Activity (Mus musculus [6]): Active
- Activity [7]: Toxic
- IC50 (Fibroblast): 29.4 µM
- IC50 (RPMI-8226): 0.44 µM
